The text below walks through data of patent publication US20090105349A1, “ANDROGEN MODULATORS” (WARNER-LAMBERT COMPANY LLC, priority 2004, published 2009).

Positions count from the first letter of the chain named. pIC50: −log10 of the molar value. Like-named read-outs stand apart in the source and are kept apart here.

The test system of assay [1] is male Syrian hamsters (ear sebaceous glands, sebum). Briefly: Animal model for inhibition of sebum production (hamster ear). The conditions noted are these: 3 % w/v, 4 weeks; for % CE Reduction / % WE Reduction: Vehicle #1 (polyethylene glycol/transcutol/ethanol 20/20/60), topical twice daily, vs vehicle control; for % WE & CE Reduction: Vehicle #1, topical twice daily, sum of WE and CE. The class given is in vivo, Syrian hamster. As for the experimental part: Arch. Derm. […] This model uses male Syrian hamsters, whose ears contain sebaceous glands.
Testing for sebum inhibition was carried out in the following manner. Male Syrian hamsters aged 9 to 10 weeks were introduced into the laboratory environment and acclimated for 2 weeks prior to use in the study. Each group consisted of 5 animals and run in parallel with vehicle and positive controls. Prior to administration, a sufficient quantity each compound was dissolved in 1 mL of the vehicle identified in Table III to achieve the final concentration reported in Table Ill.
Animals were dosed topically twice daily, five days a week, for 4 weeks. Each dose consisted of 25 micro liters of vehicle control or drug. The dose was applied to the ventral surfaces of both the right and left ears. All animals were sacrificed approximately 18-24 hours after the final dose. The right ears were collected from each animal and used for sebum analysis.
The ears were prepped for HPLC analysis in the following manner. One 8 mm distal biopsy punch was taken, just above the anatomical “V” mark in the ear to normalize the sample area. The punch was pulled apart. The ventral biopsy surface (the area where the topical dose was directly applied to the sebaceous glands) was retained for testing and the dorsal surface of the biopsy punch was discarded.
Tissue samples were blown with N2 gas and stored at −80° C. under nitrogen until HPLC analysis. In addition to ear samples, an aliquot of each drug and vehicle (at least 250 ul) was also stored at −80° C. for inclusion in the HPLC analysis.
HPLC analysis was carried out on an extract of the tissue sample. Tissue samples were contacted with 3 ml of solvent (a 4:1 admixture of 2,2,4-trimethylpentane and isopropyl alcohol). The mixture was shaken for 15 minutes and stored overnight at room temperature, protected from light. The next morning 1 milliliter of water was added to the sample and shaken for 15 minutes. The sample was then centrifuged at approximately 1500 rpm for 15 minutes. Two ml of the organic phase (top layer) was transferred to a glass vial, dried at 37° C., under nitrogen, for approximately 1 hour, and then lyophilized for approximately 48 hours. The samples were then removed from the lyophilizer and each vial was reconstituted with 600 μl of solvent A (trimethylpentane/tetrahydrofuran (99:1). The samples were then recapped and vortexed for 5 minutes.
200 μl of each sample was then transferred to a pre-labeled 200 μl HPLC vial with 200 μL glass inserts. The HPLC vials were placed in the autosampler tray for the Agilent 1100 series HPLC unit. The Agilent 1100 HPLC system consisted of a thermostated autosampler, a quarternary pump, a column heater, and an A/D interface module. All components were controlled by Agilent ChemStation software. A Waters Spherisorb S3W 4.6×100 mm analytical column was maintained at 30° C. by the Agilent column heater unit. The HPLC autosampler was programmed to maintain the sample temperature at 20 C throughout the run.
10 uL of each sample was injected in triplicate into the column. Two solvents were used for the solvent gradient. Solvent A was an admixture of trimethylpentane and tetrahydrofuran (99:1). Solvent B was ethylacetate. The gradient utilized is described in the table below: […]
The Sedex 75 Evaporative Light Scattering Detector (ELSD) was operated at 45° C. with a gain of 5, and N2 pressure maintained at 3.1 bar. Analog signal obtained by the instrument was sent to the Agilent A/D interface module where it was converted to a digital output. The conversion was based on a 10000 mAU/volt set point and the data rate was set at 10 Hz (0.03 min). The resulting digital output was then feed into the Agilent ChemStation software for integration of the peak area.

The subject of assay [2] is male C3H/HeN mice (telogen to anagen conversion). Type of assay: in vivo. From the text: While this model is a significant improvement over the telogen conversion assay as a model for human baldness, it suffers from a number of practical disadvantages. The macaques are expensive, relatively rare, labor intensive to maintain, and require long wash out periods between testing. […] Thus, the model relates to a modification of the existing telogen conversion assay. Male C3H/HeN mice approximately 7 weeks old are utilized. These animals are also uniformly in telogen, like their female counterparts. However, once shaven, the androgens inherently present in these male mice inhibit the conversion of the hair follicles to the anagen phase. An anti-androgen will block this androgenic effect and the follicles will convert to anagen, like their female counterparts.
The compounds shown below in Table IV were submitted for further testing utilizing the modified telogen conversion assay, described above. The testing was carried out in the following manner.
Male C3H/HeN mice, 6 to 7 weeks old (Charles River Laboratories, Raleigh, N.C.) were used for the study. Fur was clipped from the dorsal region of the mice prior to initiation of the study. Only mice with pink skin, a visual indication of the telogen phase, were selected for inclusion in the study.
A second group of animals received only the vehicle to serve as a control. Treatments were applied twice daily for 4 weeks.
The hair growth response was quantified by recording, for each animal, the day on which signs of hair growth first appeared over the treated area. The first sign of anagen was the darkening of skin color as melanocytes in the follicles started to synthesize melanin in preparation for the production of pigmented hairs. […] The day on which anagen was initiated in 50% of the test animals for both the treatment group and the vehicle group is reported below in Table IV.

In assay [3] the target is T1, androgen receptor in MDA-MB453-MMTV clone 54-19 cells (Homo sapiens, UniProt P10275).
T1 sequence (P10275 1-920 Q868H): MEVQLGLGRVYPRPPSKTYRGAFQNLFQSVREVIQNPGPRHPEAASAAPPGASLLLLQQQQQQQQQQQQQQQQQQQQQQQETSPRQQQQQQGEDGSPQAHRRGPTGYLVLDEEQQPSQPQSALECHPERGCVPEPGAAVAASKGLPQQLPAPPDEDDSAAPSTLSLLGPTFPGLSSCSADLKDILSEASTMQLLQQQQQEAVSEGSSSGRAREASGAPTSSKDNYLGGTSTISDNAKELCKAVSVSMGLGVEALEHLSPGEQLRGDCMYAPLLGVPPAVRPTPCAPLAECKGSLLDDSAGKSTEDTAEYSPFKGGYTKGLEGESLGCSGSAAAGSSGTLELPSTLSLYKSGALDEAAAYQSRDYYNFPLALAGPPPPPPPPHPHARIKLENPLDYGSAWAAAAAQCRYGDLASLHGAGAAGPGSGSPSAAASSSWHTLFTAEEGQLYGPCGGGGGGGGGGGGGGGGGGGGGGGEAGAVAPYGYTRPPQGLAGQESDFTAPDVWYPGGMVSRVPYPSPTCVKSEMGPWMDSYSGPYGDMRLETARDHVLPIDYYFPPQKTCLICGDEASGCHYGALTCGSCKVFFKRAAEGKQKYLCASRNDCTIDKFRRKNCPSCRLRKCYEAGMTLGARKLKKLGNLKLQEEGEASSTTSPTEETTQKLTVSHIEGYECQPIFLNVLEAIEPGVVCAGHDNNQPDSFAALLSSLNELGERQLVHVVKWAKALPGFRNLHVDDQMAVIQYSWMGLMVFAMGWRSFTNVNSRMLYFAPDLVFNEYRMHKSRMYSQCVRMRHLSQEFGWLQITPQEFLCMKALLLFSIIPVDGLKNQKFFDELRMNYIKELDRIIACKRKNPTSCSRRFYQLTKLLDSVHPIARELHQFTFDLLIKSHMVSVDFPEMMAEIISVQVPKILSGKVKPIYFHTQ
Briefly: AR antagonist cell assay (MMTV-luciferase reporter). The class given is cell-based. On the technique in general: In a reporter assay the amount or activity of a reporter protein is the signal.

Assay [4] deals with T2, hAR (human androgen receptor) (Homo sapiens, UniProt P10275).
T2 construct: made in house; host or cells: baculovirus/Sf9 insect cells (crude extract)
T2 sequence (P10275 1-920): T1 sequence (P10275 1-920 Q868H) with H868Q
Briefly: Competitive hAR binding assay with 3H-DHT tracer. The conditions noted are these: baculovirus/Sf9 hAR extract, 1 nM 3H-DHT, one hour at 4° C; mean of multiple tests; read-out: AR Binding IC50.

For another assay, the system named is spinal BMD. The conditions noted are these: after 7 years of treatment; cited from earlier work.
Where [5] appears, read: 1 % w/v, Vehicle #2, topical twice daily for 4 weeks.
Setting [6] is: read-out: AR Cell IC50; MDA-MB453-MMTV clone 54-19, inhibition of DHT induced luciferase, 17 hr; mean of multiple tests.

For `Cc1ccccc1Oc1ccc(C#N)cc1Cl` [Example 4, 3-Chloro-4-o-tolyloxy-benzonitrile], in assay [1], the “% CE Reduction” value turned out to be 76%, the “% WE Reduction” value is 90% and the “% WE & CE Reduction” value turned out to be 166%. Besides, in assay [2] (3 % w/v, Vehicle #2 (polyethylene glycol/ethanol 30/70), topical twice daily for 4 weeks), the “Anagen-Trx (day on which anagen was initiated in 50% of the test animals)” value was over 35 days.

Broadly, the pIC50 is the IC50 on a negative log10 scale, so that one unit is a factor of ten. With `N#Cc1ccc(Oc2ccccc2F)c(Cl)c1` [Example 27, 3-Chloro-4-(2-fluoro-phenoxy)-benzonitrile], in assay [3] (MDA-MB453-MMTV clone 54-19, inhibition of DHT induced luciferase, 17 hr; mean of multiple tests; read-out: AR Cell IC50), the pIC50 was 7.34. The “Anagen-Trx (day on which anagen was initiated in 50% of the test animals)” value in assay [2] (setting [5]) was over 35 days.

As for `COc1cccc(Oc2ccc(C#N)c(C(F)(F)F)c2)c1OC` [Example 91, 4-(2,3-Dimethoxy-phenoxy)-2-trifluoromethyl-benzonitrile], the pIC50 in assay [4] is 6.57; in assay [3] (setting [6]), 7.55. In assay [2] (mouse, in vivo), the “Anagen-Trx (day on which anagen was initiated in 50% of the test animals)” value turned out to be 20 days.

As to `NCCCC(O)(P(=O)(O)O)P(=O)(O)O` [alendronate], in the assay on spinal BMD, the “increase in spinal BMD” value is recorded as at most 11%.

`Cc1ccccc1Oc1ccc(C#N)c(Cl)c1` [Example 7, 2-Chloro-4-o-tolyloxy-benzonitrile]: in assay [1], the “% CE Reduction” value is 71%, the “% WE Reduction” value amounted to 87% and the “% WE & CE Reduction” value amounted to 158%. Further, the “Anagen-Trx (day on which anagen was initiated in 50% of the test animals)” value in assay [2] (setting [5]) was over 60 days. Also, the “Anagen-Trx (day on which anagen was initiated in 50% of the test animals)” value in assay [2] (5 % w/v, Vehicle #2, topical twice daily for 4 weeks) stood at 35 days.

For the compound `COc1cc(F)ccc1Oc1ccc(C#N)cc1Cl` [Example 29, 3-Chloro-4-(4-fluoro-2-methoxy-phenoxy)-benzonitrile], the figures for the negative-log IC50 (pIC50) in assay [4] and in assay [3] (setting [6]) were 6.87 and 7.17, respectively. The “Anagen-Trx (day on which anagen was initiated in 50% of the test animals)” value in assay [2] (mouse, in vivo) turned out to be 25 days.
